Values joined by “and” are separate entries in the source; they are usually repeats but may differ in a detail not shown here. Equal values may be shown once. Read-outs that look alike come from different tables or passages of the source.
Columns and labels:
RAW 264.7 cells = experiment: Cell viability (XTT method) of RAW 264.7 cells; format: cell-based; conditions: compound 10 μM, 24 h, means ± S.D.
Method: To evaluate whether the suppressive effect of compounds on NO production is related to cell viability, Raw 264.7 cells were treated with LPS for 24 h, and washed with 500 μL of phosphate buffer solution (PBS) before resuspended in 1 mL of culture medium. Cell viability tests were run in parallel with NO production assays with an initial cell density of 5 × 10^3 cells/well in the presence or absence of test compounds at 10 μM or 0.1% DMSO as control.

[1] = tested on: LPS-stimulated NO production in RAW 264.7 cells; experiment: Inhibition of LPS-induced NO production (nitrite accumulation, Griess reaction) in RAW 264.7 cells; format: cell-based; conditions: for inhibition at 10 µM: compound 10 μM, read-out: Percent Inhibition of NO Production at 10 μM
Method: Treatment of Raw 264.7 cells with LPS (0.1 μg/mL) for 24 h induced NO production which were assessed by measuring the accumulation of nitrite, a stable metabolite of NO, in the media based on Griess reaction. […] However, compound 2a was also highly cytotoxic, in which the survival rate of RAW 264.7 cells was only 9% at a drug concentration of 10 μM. […] The position of substitution play an important role in which substitution at para-position is usually more favorable than its ortho- or meta- counterpart in the inhibitory activity on the LPS-induced NO production. […] Various substituted groups have been introduced on the para-position of the phenyl ring.
Raw 264.7 cells, purchased from Bioresource Collection and Research Center, Taiwan, were cultured in DMEM, supplemented with 5% fetal bovine serum, 100 units/mL of penicillin, 100 μg/mL of streptomycin, 2 mM L-glutamine, and 1 mM non-essential amino acids in a 10-cm plate at a density of 1 × 10^6 cells/mL, at 37 °C in a humidified atmosphere containing 5% CO2.
Nitrite was measured by adding 100 μL of the Griess reagent (1% sulfanilamide and 0.1% N-(1-naphthyl)ethylenediamine dihydrochloride in 5% phosphoric acid) to 100 μL of medium for 5 min. The optical density at 550 nm (OD550) was measured with a microplate reader. Concentrations were calculated by comparison with the OD550 of a standard solution of sodium nitrite prepared in culture medium.

[2] = NO-scavenging activity (sodium nitroprusside, nitrite by Griess reaction); conditions: SNP 2.5 mM, compound 10 μM, light, room temperature, 60 min
Method: NO-scavenging effects of pyrazolo[4,3-c]quinolines 2i and 2m were measured according to the reported method. Sodium nitroprusside (SNP) (2.5 mM) was incubated alone or in combination with tested compound (10 μM) or 1400W(10 μM) in light at room temperature for 60 min.
To understand the inhibitory effects of compounds 2i and 2m on NO production, sodium nitroprusside (SNP) was freshly prepared at […] in PBS was incubated alone or in combination with 10 µM of the different compounds. SNP is an inorganic complex where NO is found as NO^+ and light irradiation is necessary for the release of NO. Therefore, incubation mixtures were incubated in light at room temperature, and nitrite levels were determined after 60 min by Griess reaction.
Figure 1 NO-scavenging effects of 1400W, compounds 2i and 2m. SNP solution (2.5 mM) in PBS was incubated alone or with tested compound (10 μM) or 1400W (10 μM) in the presence of light at room temperature for 60 min.

iNOS mRNA expression = experiment: LPS-induced iNOS mRNA expression in RAW 264.7 cells (RT-PCR); format: cell-based; conditions: pretreated 2 h, LPS 0.1 μg/mL
Text: Total RNA was extracted by Trizol-Reagent (Invirogen, Carlsbad, CA, USA) according to the manufacturer’s manual. One microgram of RNA was used for the reverse transcription of first strand cDNA using the oligo dT primers. Five microliters of cDNA were used for the amplification of iNOS and GAPDH (glyceraldehyde 3-phosphate dehydrogenase) mRNA expression. The primers for rat iNOS are as follows, forward: 5′-ACTGCGTCGCTTCATTAGGT-3′ and reverse: 5′-TAGGCAAGCGCTTTACCACT-3′. The primers for rat glyceraldehydes 3-phosphate dehydrogenase are as follows, forward: 5′-ATGGCACAGTCAAGGCTGAGA-3′ reverse: 5′-AGACGCCAGTAGACTCCACGAC-3′. The amplicons were electrophoresed on a 3% agarose gel and band intensities were measured using a spectrophotometer (Thermo Fisher Scientific, Waltham, MA, USA) and normalized against GAPDH.
Figure 3 Inhibitory effects of compound 2i and 2m on LPS-induced iNOS mRNA expression. Cells (5 × 10^5 cells/well) were pretreated with the indicated concentrations of tested compounds for 2 h before incubation with 0.1 μg/mL LPS for 9 h. Total RNA was prepared for RT-PCR analysis of iNOS mRNA expression in LPS-stimulated RAW 264.7 cells. GAPDH were used as internal controls for the RT-PCR assays3.4. Inhibition of LPS-inducible COX-2 expression.

COX-2 protein expression = experiment: LPS-inducible COX-2 protein expression in RAW 264.7 cells (western blot); format: cell-based, murine; conditions: pretreated 2 h, LPS 0.1 μg/mL 24 h
Method: The effects of compounds 2i and 2m on iNOS and COX-2 protein expression in LPS stimulated Raw 264.7 cell were assessed by western blot. Briefly, Raw 264.7 cells were pretreated with tested compound for 2 h before stimulation in the presence or absence of LPS (0.1 μg/mL). Cells were harvested and lysed with RIPA lysis buffer (50 mM Tris–Cl, pH 8.0, 150 mM NaCl, 0.1% SDS, 0.5% NP-40, 1% sodiumdeoxycholate, 1 mM phenylmethyl-sulfonylfluoride, 1 mM EDTA, no added proteinase) at 24 h after treatment. The total protein concentration in the cell lysates was measured according to the method described by Bradford. Equal amounts (15 μg) of protein were loaded and separated by using 8% SDS–PAGE and analyzed by western blot (ECL Amersham, Bensheim, Germany). The relative expression of proteins was quantified densitometrically using the software LabWorks 4.5 and was normalized againstβ-actin.
Figure 4 Inhibition of COX-2 expression by compound 2i and 2m in LPS-stimulated RAW 264.7 cells. Cells (5 × 10^5 cells/well) were pretreated with the indicated concentrations of tested compounds for 2 h before incubation with 0.1 μg/mL LPS for 24 h. Cell lysates were then prepared and western blots were performed using an antibody specific for murine COX-2.

[3] = Mus musculus, RAW264.7, 24 h, RAW 264.7 cells, LPS 0.1 μg/mL 24 h, means ± S.D., read-out: IC50 (inhibition of LPS-induced NO production)
[4] = Mus musculus, RAW264.7, training dataset, negative logarithm of IC50 values, read-out: Observed pIC50 (converted)
[5] = Mus musculus, RAW264.7, RAW 264.7 cells, LPS 0.1 μg/mL 24 h, means ± S.D.
[6] = Mus musculus, RAW264.7, test dataset, negative logarithm of IC50 values, read-out: Observed pIC50 (converted)
[7] = Mus musculus, RAW264.7, RAW 264.7 cells, LPS 0.1 μg/mL 24 h, means ± S.D., read-out: IC50 (inhibition of LPS-induced NO production)

| Structure (SMILES) | Cell Survival Rate at 10 μM (RAW 264.7 cells) | IC50 [1, 3] | IC50 [1, 4] | inhibition at 10 µM [1, 5] | melting point | IC50 [1, 6] | IC50 [1, 7] | IC50 ([1]; RAW 264.7 cells, LPS 0.1 μg/mL 24 h, means ± S.D., read-out: IC50 (inhibition of LPS-induced NO production)) | NO-scavenging effect (levels of nitrite from SNP) [2] | Inhibition of LPS-stimulated iNOS mRNA expression (iNOS mRNA expression) | Inhibition of LPS-induced COX-2 protein expression (COX-2 protein expression) |
| --- | --- | --- | --- | --- | --- | --- | --- | --- | --- | --- | --- |
| Nc1n[nH]c2c1c(Nc1ccccc1)nc1ccccc12 [Compound 2a, 3-Amino-4-phenylamino-1H-pyrazolo[4,3-c]quinoline] | 9% and 9.09 ± 0.24% | 390 ± 80 nM | 390 nM | 81.7 ± 0.99% | – | – | – | – | – | – | – |
| Nc1n[nH]c2c1c(Nc1ccccc1O)nc1ccccc12 [Compound 2b] | 53.48 ± 1.53% | 420 ± 110 nM | 420 nM | 103 ± 6.55% | – | – | – | – | – | – | – |
| COc1ccccc1Nc1nc2ccccc2c2[nH]nc(N)c12 [Compound 2c, 3-Amino-4-(2-methoxyphenylamino)-1H-pyrazolo[4,3-c]quinoline] | 47.31 ± 1.67% | – | – | 82.2 ± 6.49% | 210 to 211 °C | 490 nM | 490 ± 140 nM | – | – | – | – |
| Nc1n[nH]c2c1c(Nc1cccc(O)c1)nc1ccccc12 [Compound 2d] | 81.70 ± 0.09% | 770 ± 230 nM | – | 93.5 ± 7.57% | – | 770 nM | – | – | – | – | – |
| COc1cccc(Nc2nc3ccccc3c3[nH]nc(N)c23)c1 [Compound 2e, 3-Amino-4-(3-methoxyphenylamino)-1H-pyrazolo[4,3-c]quinoline] | 94.32 ± 0.49% | 770 nM | – | 101 ± 1.31% | 184 to 186 °C | 720 nM | – | 720 ± 180 nM | – | – | – |
| CC(=O)c1cccc(Nc2nc3ccccc3c3[nH]nc(N)c23)c1 [Compound 2f, 3-Amino-4-(3-acetylphenylamino)-1H-pyrazolo[4,3-c]quinoline] | 94.37 ± 0.36% | 290 ± 60 nM | – | 99.1 ± 2.16% | > 380 °C | 290 nM | – | – | – | – | – |
| Nc1n[nH]c2c1c(Nc1ccc(Cl)cc1)nc1ccccc12 [Compound 2g] | 81.61 ± 0.14% | 320 ± 50 nM | 320 nM | 104 ± 6.71% | – | – | – | – | – | – | – |
| Nc1n[nH]c2c1c(Nc1ccc(F)cc1)nc1ccccc12 [Compound 2h] | 89.99 ± 0.02% | 410 ± 70 nM | – | 94.8 ± 9.47% | – | 410 nM | – | – | – | – | – |
| Nc1ccc(Nc2nc3ccccc3c3[nH]nc(N)c23)cc1 [Compound 2j] | 90.26 ± 0.05% | 920 ± 50 nM | 920 nM | 95.1 ± 3.75% | – | – | – | – | – | – | – |
| COc1ccc(Nc2nc3ccccc3c3[nH]nc(N)c23)cc1 [Compound 2k] | 90.57 ± 0.03% | 480 ± 140 nM | – | 90.8 ± 11.9% | – | 480 nM | – | – | – | – | – |
| CC(=O)c1ccc(Nc2nc3ccccc3c3[nH]nc(N)c23)cc1 [Compound 2l] | 87.80 ± 0.11% | 290 ± 80 nM | 290 nM | 102 ± 6.49% | – | – | – | – | – | – | – |
| Nc1n[nH]c2c1c(Nc1ccc(C(=O)O)cc1)nc1ccccc12 [Compound 2m, 4-(3-amino-1H-pyrazolo[4,3-c]quinolin-4-ylamino)benzoic acid] | 85.42 ± 0.77% | 220 ± 70 nM | 250 nM | 87.7 ± 9.93% | – | – | – | – | did not affect the levels of nitrite | inhibited the LPS-stimulated iNOS mRNA production in a dose-dependent manner | effectively suppressed the induction of COX-2 protein expression by LPS |
| Nc1n[nH]c2c1c(Nc1ccc(C(F)(F)F)cc1)nc1ccccc12 [Compound 2n] | 69.14 ± 0.62% | 360 ± 90 nM | 360 nM | 107 ± 2.48% | – | – | – | – | – | – | – |
| Cc1ccc(Nc2nc3ccccc3c3[nH]nc(N)c23)cc1 [Compound 2o] | 84.53 ± 0.04% | 470 ± 70 nM | 470 nM | 100 ± 3.02% | – | – | – | – | – | – | – |
| Nc1n[nH]c2c1c(Nc1ccc([N+](=O)[O-])cc1)nc1ccccc12 [Compound 2p] | 90.86 ± 0.32% | 400 ± 90 nM | 400 nM | 89.11 ± 0.86% | – | – | – | – | – | – | – |
| CSc1ccc(Nc2nc3ccccc3c3[nH]nc(N)c23)cc1 [Compound 2q, 3-Amino-4-(4-methylthiophenylamino)-1H-pyrazolo[4,3-c]quinoline] | 89.62 ± 0.05% | 360 ± 80 nM | 360 nM | 102 ± 7.01% | 269 to 271 °C | – | – | – | – | – | – |
| COc1cc(Nc2nc3ccccc3c3[nH]nc(N)c23)cc(OC)c1OC [Compound 2r, 3-Amino-4-(3,4,5-trimethoxyphenylamino)-1H-pyrazolo[4,3-c]quinoline] | 85.24 ± 0.04% | 350 ± 60 nM | 350 nM | 107 ± 2.58% | 161 to 162 °C | – | – | – | – | – | – |
| CC(=N)NCc1cccc(CN)c1.Cl.Cl [Compound 1400w, N-[[3-(Aminomethyl)-phenyl]methyl]-ethanimidamide dihydrochloride, reference compound] | 99.54 ± 2.51% | – | – | 102 ± 2.16% | – | – | 200 ± 20 nM | – | did not affect the levels of nitrite | – | – |

— paper PMC6102577, “Discovery of Pyrazolo[4,3-c]quinolines Derivatives as Potential Anti-Inflammatory Agents through Inhibiting of NO Production” (Molecules : A Journal of Synthetic Chemistry and Natural …, 2018)
